Results reported in ChEMBL document CHEMBL1201862, “PubChem BioAssay data set” (2004).
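Cultured in 96-well plates, cells were exposed to test compound for 48 hours across five concentrations. At the GI50, growth is halved.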 Active and inactive are the calls of the source. No stated cut-off is given here; in the data, active = GI50 up to about 1.1 µM and inactive = higher.

Key:
Test in all cases: NCI-60 cell line screen, 48 h
[1] = test system: A498
[2] = test system: A549
[3] = test system: ACHN
[4] = test system: COLO 205
[5] = test system: DU-145
[6] = test system: HCC 2998
[7] = test system: HCT-15
[8] = test system: HL-60
[9] = test system: M14
[10] = test system: MOLT-4
[11] = test system: NCI-H522
[12] = test system: OVCAR-4
[13] = test system: OVCAR-8
[14] = test system: SNB-19
[15] = test system: SNB-75
[16] = test system: U-251
[17] = test system: UACC-257
[18] = test system: BT-549
[19] = test system: Malme-3M
[20] = test system: SR

Compound | GI50 [1] | GI50 [2] | GI50 [3] | GI50 [4] | GI50 [5] | GI50 [6] | GI50 [7] | GI50 [8] | GI50 [9] | GI50 [10] | GI50 [11] | GI50 [12] | GI50 [13] | GI50 [14] | GI50 [15] | GI50 [16] | GI50 [17] | GI50 [18] | GI50 [19] | GI50 [20]
Cc1cc2c(c(C)c1O)C(C)(C)CN2C(=O)C(C)(C)C | 66.7 µM (inactive) | > 100 µM (inactive) | > 100 µM (inactive) | 86.7 µM (inactive) | > 100 µM (inactive) | > 100 µM (inactive) | > 100 µM | 77.4 µM (inactive) | 80.7 µM (inactive) | 59.4 µM (inactive) | > 100 µM (inactive) | 54.1 µM (inactive) | > 100 µM (inactive) | > 100 µM (inactive) | 28 µM (inactive) | > 100 µM (inactive) | > 100 µM (inactive) | – | – | –
Cc1cccc(NS(=O)(=O)c2ccc(/N=N/c3c(O)c(C(=O)O)cc4ccccc34)cc2)n1 | – | > 100 µM (inactive) | > 100 µM (inactive) | > 100 µM (inactive) | – | > 100 µM (inactive) | > 100 µM | > 100 µM (inactive) | > 100 µM (inactive) | > 100 µM (inactive) | > 100 µM (inactive) | > 100 µM (inactive) | > 100 µM (inactive) | > 100 µM (inactive) | > 100 µM (inactive) | > 100 µM (inactive) | > 100 µM (inactive) | > 100 µM (inactive) | > 100 µM (inactive) | > 100 µM (inactive)
Cc1ccccc1-n1c(CCl)nc2ccc(Br)cc2c1=O | 30.1 µM (inactive) | 18.2 µM (inactive) | 30.1 µM (inactive) | 13.4 µM (inactive) | – | 16.8 µM (inactive) | 3.59 µM | 5.77 µM (inactive) | 0.679 µM (active) | 19.8 µM (inactive) | 2.28 µM (inactive) | 14.8 µM (inactive) | 12.5 µM (inactive) | 26.7 µM (inactive) | 12.8 µM (inactive) | 13.2 µM (inactive) | 14.8 µM (inactive) | – | 17.3 µM (inactive) | 3.73 µM (inactive)
N#Cc1nc(Nc2ccc([N+](=O)[O-])cc2)sc1N | 26.2 µM (inactive) | 23.9 µM (inactive) | 9.62 µM (inactive) | 14 µM (inactive) | – | 11.7 µM (inactive) | 12.5 µM | 3.53 µM (inactive) | 22 µM (inactive) | 2.48 µM (inactive) | 4.05 µM (inactive) | 33.8 µM (inactive) | 19.4 µM (inactive) | 17.7 µM (inactive) | 39.4 µM (inactive) | 9.68 µM (inactive) | 18.6 µM (inactive) | – | 23.9 µM (inactive) | 0.675 µM (active)
